# Active and inactive are the calls of the source. No rule for the calls is given here.
# Biological target: Induced myeloid leukemia cell differentiation protein Mcl-1 (Homo sapiens) (UniProt Q07820)
# Assay: blockers of Bid binding to Mcl-1 – biochemical, TR-FRET, dose response (AID 1418)
# Details: Mcl-1/Bid peptide binding, TR-FRET (europium/Dy647), 2 hr
# Chain of Induced myeloid leukemia cell differentiation protein Mcl-1 (Homo sapiens) (Q07820 whole entry, looked up): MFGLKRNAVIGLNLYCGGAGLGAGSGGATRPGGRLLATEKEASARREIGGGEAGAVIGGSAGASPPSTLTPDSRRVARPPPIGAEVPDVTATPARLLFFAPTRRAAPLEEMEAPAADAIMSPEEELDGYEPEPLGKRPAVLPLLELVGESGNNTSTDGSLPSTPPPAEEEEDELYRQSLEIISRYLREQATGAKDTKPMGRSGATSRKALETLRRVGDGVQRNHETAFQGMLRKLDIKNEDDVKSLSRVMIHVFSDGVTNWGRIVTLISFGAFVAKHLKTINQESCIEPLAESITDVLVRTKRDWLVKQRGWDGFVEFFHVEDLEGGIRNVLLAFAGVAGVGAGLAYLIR
row,SMILES,IC50
1,O=C(NC(=S)NCc1cccnc1)c1ccc([N+](=O)[O-])cc1,> 54 µM (inactive)
2,O=C(CN1C(=O)/C(=C2\SC(=S)N(C3CCS(=O)(=O)C3)C2=O)c2ccccc21)Nc1ccccc1 (configuration not stated),0.73 µM
3,O=C1CSC(c2ccncc2)N1Cc1ccccc1 (configuration not stated),> 54 µM (inactive)
4,COc1ccc(OC(=O)c2ccncc2)cc1,> 54 µM (inactive)
5,CCOc1cc(N2CCOCC2)c(OCC)cc1NC(=O)CCS(=O)(=O)c1ccc(Cl)cc1,> 54 µM (inactive)
6,O=C(Nc1cccc(Cl)c1)c1cc(N=Nc2ccc([N+](=O)[O-])cc2Cl)ccc1O,4.18 µM
7,O=C(Nn1cnnc1)c1ccccc1CCc1ccccc1,> 54 µM (inactive)
8,CN(C)S(=O)(=O)c1cc(S(=O)(=O)N(C)C)c(Cl)cc1N,> 54 µM (inactive)
9,Cc1occc1C(=O)N/N=C/c1ccc(N(C)C)cc1,> 54 µM (inactive)
10,CCOc1ccc2nc(N3C(=O)/C(=C/c4ccc(Cl)cc4)NC3=S)sc2c1,2.43 µM
11,O=C(O)CCN1C(=O)S/C(=C\c2cccnc2)C1=O,> 54 µM (inactive)
12,NC(=S)n1[nH]c(-c2ccc([N+](=O)[O-])cc2)c(N=Nc2ccc(Cl)cc2)c1=O,0.56 µM
13,c1ccc2c(c1)nnn2-c1ncnc2sc3c(c12)CCCC3,> 54 µM (inactive)
14,Cc1ccc(-c2nc(N3CCOCC3)sc2C(=O)N2CCCCC2)cc1,> 54 µM (inactive)
15,CCS(=O)(=O)c1ccc(S(=O)(=O)CC)s1,> 54 µM (inactive)
16,CC(=O)Oc1ccc(C(c2ccc(OC(C)=O)cc2)c2ccccn2)cc1,> 54 µM (inactive)
17,C=CS(=O)(=O)c1sc(Cl)c(N2CCOCC2)c1[N+](=O)[O-],1.77 µM
18,COc1ccc2nc(-n3c(O)c(C4=c5ccccc5=NC4=O)[nH]c3=S)sc2c1,1.38 µM
19,O=C(N/N=C/C(Br)=C\c1ccccc1)c1ccco1,> 54 µM (inactive)
20,CSc1ccccc1NC(=O)CNCCCN1CCOCC1,> 54 µM (inactive)
21,O=C(Nc1ccc(-c2nc3cc(Cl)ccc3c(=O)o2)cc1)c1ccco1,> 54 µM (inactive)
22,C=CC(c1ccccc1)C(C(=O)c1ccccc1)N(C)C (configuration not stated),> 54 µM (inactive)
23,COc1cc2[nH]c(=S)n(N(C(C)=O)C(C)=O)c(=O)c2cc1OC,> 54 µM (inactive)
24,CCc1ccc(C(CC(=O)c2ccc(Cl)cc2)C(=O)O)cc1 (configuration not stated),> 54 µM (inactive)

row,SMILES,IC50
1,CNNC(=O)C(=O)NNS(=O)(=O)c1ccccc1,> 54 µM (inactive)
2,CCCCCC#CCC#CCC#CCC#CCCCC(=O)O,1.78 µM
3,O=C(O)c1cc(N2N=C(C(F)(F)F)/C(=C/C=C/c3ccco3)C2=O)ccc1Cl,1.4 µM
4,COc1cc(/C=N/NC(=O)c2ccc(CN3c4cccc5cccc(c45)S3(=O)=O)cc2)cc(OC)c1O,1.41 µM
5,Nc1nnc(SCC(=O)N2CCN(c3ccccc3)CC2)n1-c1ccccc1,> 54 µM (inactive)
6,O=C(CCCN1C(=O)c2ccccc2C1=O)Nc1ccccc1,> 54 µM (inactive)
7,CCN1/C(=C/C=C/c2oc3ccc4ccccc4c3[n+]2CC)Oc2ccc3ccccc3c21,0.58 µM
8,CCOC(=O)c1sc2nc3c(SCCC(=O)O)cc(C(=O)c4cc(OC)ccc4O)cn3c(=O)c2c1C,1.66 µM
9,CCCCOc1ccc(CC2C(=O)N(C)C(=O)N(C)C2=O)cc1,> 54 µM (inactive)
10,COc1ccc(N2C(=O)CC(S/C(N)=N/N=C/c3ccnc4ccccc34)C2=O)cc1 (configuration not stated),> 54 µM (inactive)
11,CCC(=NC(C)c1ccccc1)c1c(O)[nH]c(=O)[nH]c1=O (configuration not stated),0.45 µM
12,Cc1cc(C)n(Cc2cccc(F)c2)c(=O)c1C#N,> 54 µM (inactive)
13,COc1ccc(C(=O)Nc2nc3cc(OC)c(OC)cc3c(=O)[nH]2)cc1,> 54 µM (inactive)
14,CCOc1ccc(/C=C/C(=O)Nc2ccc(N3CCOCC3)cc2)cc1,> 54 µM (inactive)
15,O=C(CNC(=O)c1ccc([N+](=O)[O-])cc1)N/N=C\c1ccc(OC(=O)c2ccccc2)cc1,11 µM
16,CC1CCc2c(sc3ncn(CC(=O)N=Nc4c(O)[nH]c5ccccc45)c(=O)c23)C1 (configuration not stated),1.47 µM
17,O=C(C1=C[C@@H](c2csc3ccccc23)C[C@@H](OCc2ccc(CO)cc2)O1)N1CCN(Cc2ccc3c(c2)OCO3)CC1,> 54 µM (inactive)
18,CN(C1=NC(=O)CS1)c1ccc(O)cc1,> 54 µM (inactive)
19,Cc1ccc(C(=O)OC2=CC(=O)CC(C)(C)C2)cc1,> 54 µM (inactive)
20,COc1ccc(CCNc2nc(-c3cccnc3)cs2)cc1OC,> 54 µM (inactive)
21,Nc1c(C(=O)NCC2CCCO2)sc2nc3c(c(-c4ccco4)c12)CC/C3=C\c1ccco1 (configuration not stated),> 54 µM (inactive)
22,O=C(NCc1nnc(SCC(=O)N2CCOCC2)o1)c1c(F)cccc1Cl,> 54 µM (inactive)
23,O=C(N/N=C/c1ccco1)c1ccc(N2CCCC2=O)cc1,> 54 µM (inactive)
24,O=C(Cn1nnc(-c2ccccc2NC(=O)c2cccs2)n1)Nc1ccccc1,> 54 µM (inactive)

row,SMILES,IC50
1,O=C(CC(C(=O)O)c1c[nH]c2ccccc12)c1ccccc1 (configuration not stated),> 54 µM (inactive)
2,COc1ccc(CCNC(=O)c2ccc(Cl)cc2Cl)cc1OC,> 54 µM (inactive)
3,Cc1ccc(C(=O)NC(C)c2nc3ccccc3n2CC(=O)Nc2c(C)cc(C)cc2C)cc1 (configuration not stated),0.45 µM
4,O=C(COC(=O)CCNS(=O)(=O)c1ccc2c(c1)OCCO2)NC1CCCc2ccccc21 (configuration not stated),> 54 µM (inactive)
5,Cc1cccc(N(CC(=O)NC2CCCC2)C(=O)c2cc3cc4cccc(C)c4nc3s2)c1C,> 54 µM (inactive)
6,Clc1ccccc1CN1CCc2sccc2C1,> 54 µM (inactive)
7,Cc1cc(N2CC(C)OC(C)C2)n2cc(-c3ccccc3)nc2n1 (configuration not stated),> 54 µM (inactive)
8,Cc1ccc(-c2cn(-c3ccccc3)c(SCC(N)=O)n2)cc1C,> 54 µM (inactive)
9,Clc1ccc(SCCn2ccnc2)cc1,inactive
10,CSc1cccc(NC(=O)CN(C)S(=O)(=O)c2ccccc2)c1,> 54 µM (inactive)
11,COc1ccc(-c2csc(/C(C#N)=C\c3ccc(O)c([N+](=O)[O-])c3)n2)cc1OC,> 54 µM (inactive)
12,COc1ccc(NC(C)C(=O)Nc2ccc(C#N)cc2)cc1Cl (configuration not stated),> 54 µM (inactive)
13,Cc1cccc(Cn2c(C)nc3c(N)c(C)c(C)cc32)c1,> 54 µM (inactive)
14,O=C(Cn1[nH]c(=O)c2ccccc2c1=O)OCC(=O)N1CCc2ccccc2C1,> 54 µM (inactive)
15,COc1ccc(OC)c(-n2c(N)c(C(=O)NCC3CCCO3)c3nc4ccccc4nc32)c1 (configuration not stated),> 54 µM (inactive)
16,COc1ccccc1OCCOc1ccc(/C=C2/C(=N)N3OC(C)=CC3=NC2=O)cc1OC,0.56 µM
17,O=c1c2ccccc2sc2nc(C3CCCCC3)n(Cc3ccco3)c(=O)c12,19.3 µM
18,CCOC(=O)C1CCCN(c2c(N3CCN(c4cccc(Cl)c4)CC3)c(=O)c2=O)C1 (configuration not stated),> 54 µM (inactive)
19,O=C(O)c1cc(-c2ccc(/C=C3/SC(=S)N(Cc4ccccc4)C3=O)o2)ccc1Cl,1.7 µM
20,CC(/C=N\Nc1nnc2c(n1)[nH]c1c(C)cccc12)=C\c1ccco1,1.66 µM
21,CC(C)c1[nH]nc2c1C(c1cccnc1)C(C#N)=C(N)O2 (configuration not stated),> 54 µM (inactive)
22,O=C(O)c1cccc(N/N=C/C2=C(Cl)c3cc(Cl)ccc3SC2)c1,8.44 µM
23,O=C(CSc1nnc(SCc2ccc(Cl)cc2)s1)N/N=C/c1c[nH]c2ccccc12,0.44 µM
24,Cc1ccc(-n2c(C)n[nH]c2=S)cc1C,> 54 µM (inactive)

# Source: PubChem BioAssay AID1418 (Emory University Molecular Libraries Screening Center, 2008)
